Key:
[1] = Storage stability of staining compound solution in DMSO; type: physicochemical; details: 10 ng/mL in DMSO, closed glass container, normal temperature, 1 month; rate of change of absorbance and fluorescence intensity
Procedure, shortened: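 Compounds held as 10 ng/mL DMSO solutions in closed glass containers at normal temperature for 1 month. Rates of change in absorbance and fluorescence intensity at a given wavelength versus start were scored: +++ <5%, ++ 5–15%, − >15%.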

[2] = Excitation and fluorescence emission wavelength measurement; type: physicochemical; design: Stokes shift (λem − λex): unit not given here; details: aqueous solution: 10 mg/mL solution in DMSO diluted 500-fold with purified water
Experimental: It should be noted that the excitation wavelength and the fluorescence emission wavelength of the staining compound were determined by measuring an aqueous solution, which had been obtained by diluting 500-fold a 10 mg/mL solution of the staining compound in DMSO with purified water, with a fluorescence spectrophotometer FL 4500 manufactured by Hitachi High-Technologies Corporation.

[3] = test system: human small intestine section; assay: In vitro labelling of human frozen tissue section slide; type: cell-based; design: key to Staining property: +++: stained; −: no stained; key to Fluorescence sensitivity: +++: strongly observed; ++: moderately observed; +: weakly observed; −: no stained; details: 10 ng/mL aqueous solution, 1 hour
Experimental: (§1) A human frozen tissue section slide (manufactured by BioChain Institute, Inc.) shown in Table 3 was immersed in a 10 ng/mL aqueous solution of each of the staining compounds shown in Table 3 for 1 hour. Next, the slide was washed three times with PBS for 10 minutes, mounted with Fluoromount G (manufactured by Southern Biotechnology), and then covered with a cover glass.

Zebrafish juveniles = assay: In vivo labelling of Zebrafish juveniles with probe for biological specimen; design: key to Staining property: +++: stained; −: no stained; key to Fluorescence sensitivity: +++: strongly observed; ++: moderately observed; +: weakly observed; −: no stained; details: 1 hour; for Site(s) to be labelled: 10 ng/mL in water, stereoscopic microscope; for Fluorescence sensitivity / Staining property: 10 ng/mL; for Fluorescence sensitivity: fluorescence intensity visually evaluated; for Staining property: visually evaluated
Procedure, shortened: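 Five zebrafish juveniles were immersed in distilled water containing staining compound at 10 ng/mL (DMSO solution) for 1 hour. They were then washed three times with Egg Water, immobilised in 3% methylcellulose and imaged by stereomicroscope. Staining and fluorescence intensity were scored visually on a +++ to − scale.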

[4] = test system: human liver tumor section; assay: In vitro labelling of human frozen tissue section slide; type: cell-based; design: key to Staining property: +++: stained; −: no stained; key to Fluorescence sensitivity: +++: strongly observed; ++: moderately observed; +: weakly observed; −: no stained; details: 10 ng/mL aqueous solution, 1 hour
Experimental: as §1

Zebrafish liver section = assay: Ex vivo labelling: tissue section of stained Zebrafish; design: key to Staining property: +++: stained; −: no stained; key to Fluorescence sensitivity: +++: strongly observed; ++: moderately observed; +: weakly observed; −: no stained; details: 50 μm, fish stained as in Example 5, PFA fixed
Experimental: Zebrafish which had been stained by the operation in Example 5 was taken out and fixed with a 4% solution of paraformaldehyde (PFA) in PBS. After that, a tissue section having a thickness of 50 μm was prepared with a linear slicer PRO7 (manufactured by Dosaka EM Co., Ltd.) (Table 3). The section was collected on an MAS-coated slide glass (manufactured by Matsunami Glass Ind., Ltd.), mounted with Fluoromount G (manufactured by Southern Biotechnology), and then covered with a cover glass.

SMILES | Excitation wavelength λex [2] [nm] | Fluorescence emission wavelength λem [2] [nm] | Stokes shift (λem − λex) [2] | Storage stability [1] | Fluorescence sensitivity [3] | Staining property [3] | Site(s) to be labelled (Zebrafish juveniles) | Fluorescence sensitivity (Zebrafish juveniles) | Staining property (Zebrafish juveniles) | Fluorescence sensitivity [4] | Staining property [4] | Fluorescence sensitivity (Zebrafish liver section) | Staining property (Zebrafish liver section)
CCN1C(=O)/C(=c2\s/c(=C/c3ccc4c(c3)C3CCCC3N4c3ccc(SC)cc3)c(=O)n2CC(=O)O)SC1=S (stereo not drawn) [Dye 18] | 570 | 699 | 129 | +++ (rates of change of the absorbance and the fluorescence intensity are less than 5%, and thus, the storage stability is highly excellent) | +++ | +++ | blood vessel, gallbladder, and gastrointestinal | +++ | +++ |  |  |  | 
O=C(O)C[n+]1c(/C=C/c2cc(Br)c3c(c2)C2CCCC2N3c2ccccc2)sc2ccccc21 (stereo not drawn) [Dye 23] | 545 | 636 | 91 | +++ (rates of change of the absorbance and the fluorescence intensity are less than 5%, and thus, the storage stability is highly excellent) |  |  | nose | +++ | +++ | +++ | +++ |  | 
COc1ccc2cc(N3c4ccc(/C=C(\C#N)C(=O)O)cc4C4CCCC43)ccc2c1 (stereo not drawn) [Dye 6] | 474 | 610 | 136 | +++ (rates of change of the absorbance and the fluorescence intensity are less than 5%, and thus, the storage stability is highly excellent) |  |  |  | +++ | +++ |  |  | +++ | +++
COc1ccc2cc(N3c4ccc(/C=C5\C(=O)N(c6ccccc6)N=C5C(=O)O)cc4C4CCCC43)ccc2c1 (stereo not drawn) [Dye 14] | 610 | 675 | 65 | +++ (rates of change of the absorbance and the fluorescence intensity are less than 5%, and thus, the storage stability is highly excellent) |  |  | gallbladder | ++ | +++ |  |  |  | 
O=C(O)Cn1c(=O)/c(=C\c2ccc3c(c2)C2CCCC2N3c2ccccc2)s/c1=C1/SC(=S)N(Cc2ccccc2)C1=O (stereo not drawn) [Dye 66] | 586 | 661 | 75 | ++ (rates of change of the absorbance and fluorescence intensity are 5 to 15%, and thus, the storage stability is excellent) |  |  | blood vessel, nose, and gastrointestinal tract | ++ | +++ |  |  |  | 
O=C(O)C1=NN(c2ccccc2)C(=O)/C1=C\c1ccc2c(c1)C1CCCC1N2c1ccc(C=C(c2ccccc2)c2ccccc2)cc1 (stereo not drawn) [Dye 51] | 582 | 670 | 88 | ++ (rates of change of the absorbance and fluorescence intensity are 5 to 15%, and thus, the storage stability is excellent) |  |  | gallbladder and gastrointestinal tract | + | +++ |  |  |  | 
COc1ccc2cc(N3c4ccc(/C=C5/SC(=S)N(CCC(=O)O)C5=O)cc4C4CCCC43)ccc2c1 (stereo not drawn) [Dye 20] | 533 | 661 | 128 | +++ (rates of change of the absorbance and the fluorescence intensity are less than 5%, and thus, the storage stability is highly excellent) |  |  | blood vessel, liver, and gastrointestinal tract | +++ | +++ |  |  |  | 
CCN1C(=O)/C(=c2\s/c(=C/c3ccc4c(c3)C3CCCC3N4c3ccc(OC)cc3)c(=O)n2CC)SC1=S (stereo not drawn) [Dye 68] | 602 | 667 | 65 | +++ (rates of change of the absorbance and the fluorescence intensity are less than 5%, and thus, the storage stability is highly excellent) |  |  | gastrointestinal tract | +++ | +++ |  |  |  | 
O=C(O)CN1C(=O)/C(=C\c2ccc3c(c2)C2CCCC2N3c2ccc(C=C(c3ccccc3)c3ccccc3)cc2)SC1=S (stereo not drawn) [Dye 88] | 535 | 655 | 120 | +++ (rates of change of the absorbance and the fluorescence intensity are less than 5%, and thus, the storage stability is highly excellent) |  |  | nose | +++ | +++ |  |  |  | 

More lines, main results first:

Excitation wavelength λex [2] [nm] | Fluorescence emission wavelength λem [2] [nm] | Stokes shift (λem − λex) [2] | SMILES | Storage stability [1] | Fluorescence sensitivity [3] | Staining property [3] | Site(s) to be labelled (Zebrafish juveniles) | Fluorescence sensitivity (Zebrafish juveniles) | Staining property (Zebrafish juveniles) | Fluorescence sensitivity [4] | Staining property [4] | Fluorescence sensitivity (Zebrafish liver section) | Staining property (Zebrafish liver section)
440 | 580 | 140 | COc1ccc(N2c3ccc(/C=C(/C#N)C(=O)O)cc3C3CCCC32)cc1 (stereo not drawn) [Dye 131] | +++ (rates of change of the absorbance and the fluorescence intensity are less than 5%, and thus, the storage stability is highly excellent) |  |  | liver and gastrointestinal tract | +++ | +++ |  |  |  | 
784 | 811 | 27 | CC1(C)C(/C=C/C=C/C=C/C=C2\N(CCCCS(=O)(=O)O)c3ccc4ccccc4c3C2(C)C)=[N+](CCCCS(=O)(=O)[O-])c2ccc3ccccc3c21 [ICG, indocyanine green, reference compound] | − (rates of change of the absorbance and fluorescence intensity are more than 15%, and thus, the storage stability is poor) |  |  | liver | + | +++ |  |  |  | 
430 | 600 | 170 | CSc1ccc(N2c3ccc(/C=C(/C#N)C(=O)O)cc3C3CCCC32)cc1 (stereo not drawn) [Dye 135] | +++ (rates of change of the absorbance and the fluorescence intensity are less than 5%, and thus, the storage stability is highly excellent) |  |  | blood vessel | +++ | +++ |  |  |  | 
380 | 490 | 110 | O=C1/C(=C/c2ccc3c(c2)C2CCCC2N3c2ccccc2)Oc2ccc(I)cc21 (stereo not drawn) [Dye 141] | +++ (rates of change of the absorbance and the fluorescence intensity are less than 5%, and thus, the storage stability is highly excellent) |  |  | gastrointestinal tract | +++ | +++ |  |  |  | 
